Blank lines part the entries; values can stand above or below the compound they belong to.
Experiments:
[1] = tested on: MIA PaCa-2 control; experiment: BSA macropinocytosis (6-TAMRA-BSA uptake), flow cytometry and confocal microscopy; assay type: cell-based, human; settings: 75 μM EIPA pretreatment 30 minutes
Method: (§1) 4 pancreatic cancer cell lines, MIA PaCa-2 control, MIA PaCa-2 KRAS KD, BxPC-3 control and BxPC-3 KRAS^G12V (10^5 cells per well, 1 mL) were inoculated in a 12-well microplate (Corning, N.Y., USA) and incubated at 37° C. and 5% CO2. When the cell density reached approximately 65%, the cell culture medium was replaced with a serum-free culture medium. After 12 hours, the culture medium was removed again and replaced with DMEM containing 1 mg/mL 6-TAMRA-BSA (500 μL/well). After incubated for another 4 hours, the cells were washed, digested and suspended in PBS (400 μL) and subjected to fluorescence analysis on a flow cytometer (BD, FACS Calibur, USA) using a 544 nm laser excitation and a 575 nm emission filter. Based on forward scattering and side scattering analysis, viable cells (10,000 cells/sample) were counted to detect the fluorescence intensity of the cells. For the EIPA (a known macropinocytosis inhibitor) inhibition experiment, cells were incubated with serum-free culture medium for 12 hours, pretreated with 75 μM of EIPA for 30 minutes, then replaced with fresh DMEM containing 1 mg/ml 6-TAMRA-BSA was added (500 μL/well).
(§2) Cells were cultured and treated as described above and grown on coverslips. After cell nuclei were stained with DAPI, the cells grown on the coverslips were observed under a multiphoton confocal Ti-E A1RMP inverted microscope (Nikon, Japan).

[2] = tested on: MIA PaCa-2 KRAS KD; experiment: as above; assay type: cell-based, human; settings: 75 μM EIPA pretreatment 30 minutes
Method: as §1, §2

[3] = tested on: BxPC-3 control; experiment: as above; assay type: cell-based, human; settings: 75 μM EIPA pretreatment 30 minutes
Method: as §1, §2

[4] = tested on: BxPC-3 KRAS^G12V; experiment: as above; assay type: cell-based, human; settings: 75 μM EIPA pretreatment 30 minutes
Method: as §1, §2

[5] = Pharmacokinetics of dC3 and β-lap after intravenous injection; assay type: in vivo, Sprague Dawley rats; settings: Sprague Dawley, rat, plasma, 50 mg/kg (β-lap equivalent dose), β-lap once converted from dC3, read-out: pharmacokinetic half-life
Method: The comparison of pharmacokinetics of different preparations in Sprague Dawley rats (n=3 per group) was performed. […] The blood samples were centrifuged at 4° C. and 1000 rpm for 3 minutes. The plasma concentrations of β-lap and dC3 were analyzed by LC-MS/MS (AB Sciex QTRAP 5500, USA).

[6] = tested on: SW1990 (KRAS^G12D); experiment: In vitro cytotoxicity, MTS assay; assay type: cell-based
Method: (§3) Briefly, four pancreatic cancer cell lines were firstly inoculated into a 96-well culture plate (4000 cells/well), each well containing 0.1 mL of cell culture medium. […] PLE (1 U/mL) was added concurrently with the dC3 preparation. The cells were further incubated for 12 hours, then the culture medium containing drugs was removed and new culture medium without drug was added. Relative survival curves of the four pancreatic cancer cell lines were obtained using the MTS assay (Promega, USA). The mean value of 6 wells per treatment was calculated and the treatment/control (T/C) value was calculated as a percentage of cell survival rate. All calculations were performed by GraphPad Prism 7 software (GraphPad Software, USA).
(§4) The relative survival profiles of pancreatic cancer cells SW1990 (KRAS^G12D) and SW1990/GEM (KRAS^G12D) were also measured using the same method. SW1990/GEM was cultured in a culture medium with 50 μM gemcitabine to maintain drug resistance.

[7] = tested on: SW1990/GEM (KRAS^G12D); experiment: In vitro cytotoxicity, MTS assay; assay type: cell-based
Method: as §3, §4

[8] = tested on: MIA PaCa-2 control; experiment: In vitro cytotoxicity, MTS assay; assay type: cell-based, human; settings: PLE 1 U/mL; slightly higher than β-lap
Source text: KRAS mutant cells MIA PaCa-2 (KRAS^G12C) and KRAS wild-type (KRAS^WT) BxPC-3 were selected for experiments. The expression levels of mutant KRAS in MIA PaCa-2 and BxPC-3 cells were manipulated. According to the supplier's protocol, MIA PaCa-2 cells with low expression level of KRAS were realized by lentiviral-mediated construction and transfection of pCDH-KRas-shRNA; control MIA PaCa-2 cells were realized by lentiviral-mediated transfection of pCDH vector; BxPC-3 cells with high expression level of KRAS were realized by lentiviral-mediated construction and transfection of pCDH-KRas-G12V, and control BxPC-3 cells were realized by lentiviral-mediated transfection of pCDH vector. All plasmids were purchased from […] Addgene (USA). The plasmid was transfected into the cells using transfection reagents (Promega, USA). 1 μg/mL puromycin was added to the culture medium for 48 hours to select stable transfected cell lines. Cells were represented as MIA PaCa-2 control, MIA PaCa-2 KRAS KD, BxPC-3 control and BxPC-3 KRAS^G12V.
Briefly, four pancreatic cancer cell lines were firstly inoculated into a 96-well culture plate (4000 cells/well), each well containing 0.1 mL of cell culture medium. […] The mean value of 6 wells per treatment was calculated and the treatment/control (T/C) value was calculated as a percentage of cell survival rate. […]

[9] = tested on: porcine liver esterase (PLE); experiment: Conversion of dC3 to β-lap at different BSA concentrations; assay type: in vitro ADME
Method: In order to study the effect of BSA on the conversion of dC3 to β-lap catalyzed by an esterase, dC3 was dissolved in DMSO (final DMSO concentration <0.5%), and then added dropwise to a solution of 1 M sodium salicylate, 1 U/mL porcine liver esterase (PLE) and different concentrations of BSA. The solution was shaken in a water bath at 60 rpm at 37° C. At predetermined time points (5, 10, 15, 30, 45, 60, 90, and 120 minutes), each 0.5 mL of release medium were taken out and replaced with an equal volume of fresh medium. The removed release medium was mixed with 0.5 mL of acetonitrile, and centrifuged for 10 minutes at 10,000 rpm to remove denatured proteins. The concentration of β-lap was analyzed by H PLC.
In order to study whether the effect of BSA on dC3-β-lap conversion catalyzed by an esterase will change in the presence of the polymer, the above-mentioned experiments were also conducted with the amount of PEG5K-β-PLA5K proportional to micelle preparation. Other conditions remained unchanged.

[10] = Solubility and apparent drug concentration; assay type: physicochemical

effect on BSA uptake [2]: almost had no effect
Structure (SMILES): CCN(c1nc(N)c(C(=O)N=C(N)N)nc1Cl)C(C)C [EIPA, 5-[N-ethyl-N-isopropyl] amiloride]
effect on 6-TAMRA-BSA uptake (macropinocytosis) [1]: can be inhibited
effect on BSA uptake [3]: almost had no effect
effect on 6-TAMRA-BSA uptake (macropinocytosis) [4]: can be inhibited

Structure (SMILES): CC1(C)CCC2=C(O1)c1ccccc1C(=O)C2=O [β-lap, β-lapachone]
half-life [5]: ~24 min
inhibition of cells [6]: effectively inhibit
inhibition of cells [7]: effectively inhibit

dC3-β-lap conversion ratio ([9]; BSA introduced at a low BSA-dC3 ratio, PLE): significantly reduced
dC3-β-lap conversion ([9]; BSA plus small amount of PEG-b-PLA proportional to micelle preparation): accelerated
solubility [10]: < 0.1 µg/mL
Structure (SMILES): CCC(=O)Oc1c2c(c3ccccc3c1OC(=O)CC)OC(C)(C)CC2 [dC3]
IC50 values, compared among dC3 treatments [8]: comparable

From US20220118057A1, “ALBUMIN NANOPARTICLES, THE MAKING METHOD, AND USES THEREOF” (NOVAGENESIS THERAPEUTIX (HK) LIMITED, priority 2019, published 2022)
